Patent US6224849A, “Alkylaminobenzothiazole and-benzoxazole derivatives” (Janssen Pharmaceutica N.V., priority 1996, dated 2001)

molecular target: T1, cloned human D4 receptors (Homo sapiens, UniProt P21917); experiment: In vitro radioligand binding affinity for dopamine D4 receptor (3H-spiperone competition, transfected CHO cell membranes); settings: membranes of transfected CHO cells expressing cloned human D4 receptors, read-out: pIC50 (-log IC50), dopamine D4 receptor (converted)
T1 construct: purchased Receptor Biology, Maryland, USA; host or cells: transfected Chinese Hamster Ovary (CHO) cells (membrane preparation)
T1 sequence (P21917 1-419): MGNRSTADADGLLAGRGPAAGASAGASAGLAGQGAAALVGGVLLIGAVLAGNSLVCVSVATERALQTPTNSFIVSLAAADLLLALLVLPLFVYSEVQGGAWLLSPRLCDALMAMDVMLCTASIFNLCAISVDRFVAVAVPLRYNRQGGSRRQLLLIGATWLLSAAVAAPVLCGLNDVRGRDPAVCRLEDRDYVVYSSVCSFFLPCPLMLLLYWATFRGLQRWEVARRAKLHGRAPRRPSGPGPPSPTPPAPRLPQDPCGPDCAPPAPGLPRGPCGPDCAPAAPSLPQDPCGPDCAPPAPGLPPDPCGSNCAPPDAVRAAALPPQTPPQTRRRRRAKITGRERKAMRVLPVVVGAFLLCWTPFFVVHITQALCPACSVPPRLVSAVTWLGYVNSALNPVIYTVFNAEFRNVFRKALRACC
Procedure: In vitro binding affinity for dopamine D4 receptor
The interaction of the compounds of formula (I) with the dopamine D4 receptors was assessed in in vitro radioligand binding experiments.
A low concentration of ^3 H-spiperone with a high binding affinity for the dopamine D4 receptor was incubated with a sample of a membrane preparation of transfected Chinese Hamster Ovary (CHO) cells which express cloned human D4 receptors (Receptor Biology, Maryland, USA) in a buffered medium. When equilibrium of binding was reached, the receptor bound radioactivity was separated from the non-bound radioactivity, and the receptor bound activity was counted. The interaction of the test compounds, added to the incubation mixture in various concentrations, with the dopamine D4 receptor was assessed in competition binding experiments as described by Schotte et al. (Psychopharmacology, 1996, 124, 57-73).

IC50, ≤ 100 nM:
Clc1ccc(N2CCN(CCNc3nc4ccccc4s3)CC2)cc1 [Compound 134]
Fc1ccc(N2CCN(CCCNc3nc4ccccc4s3)CC2)cc1 [Compound 25]
CN(CCCN1CCN(c2ccc(Cl)c(Cl)c2)CC1)c1nc2ccccc2s1 [Compound 100]
Clc1ccc(N2CCN(CCN(Cc3ccccc3)c3nc4ccccc4s3)CC2)cc1Cl [Compound 106]
COc1ccc(N2CCN(CCNc3nc4ccccc4s3)CC2)cc1 [Compound 21]
c1ccc2c(N3CCN(CCNc4nc5ccccc5s4)CC3)cccc2c1 [Compound 119]
c1ccc(N2CCN(CCNc3nc4ccccc4s3)CC2)cc1 [Compound 6, N-[2-(4-phenyl-1-piperazinyl)ethyl]-2-benzothiazolamine]
CN(CCN1CCN(c2ccc(Cl)c(Cl)c2)CC1)c1nc2ccccc2s1 [Compound 101]
COc1ccc(N2CCN(CCNc3nc4ccccc4s3)CC2)cc1OC [Compound 23]
